Paper PMC12767876, “Synthesis and evaluation of enantiomeric quinoline-2-carboxamides: positron emission tomography imaging agents for the translocator protein” (RSC Medicinal Chemistry, 2025)
Like-named read-outs stand apart in the source and are kept apart here.

Tests used:
TSPO [1] = molecular target: T1, TSPO (Homo sapiens, UniProt P30536); assay: [3H]PK11195 competition binding assay on homogenised human brain tissue (frontal cortex) from rs6971 genotyped HAB, MAB and LAB donors; settings: for influence of rs6971 polymorphism on binding: HAB vs. LAB, unpaired t-test, p = 0.5273, n = 6 per genotype
T1 sequence (P30536 2-169): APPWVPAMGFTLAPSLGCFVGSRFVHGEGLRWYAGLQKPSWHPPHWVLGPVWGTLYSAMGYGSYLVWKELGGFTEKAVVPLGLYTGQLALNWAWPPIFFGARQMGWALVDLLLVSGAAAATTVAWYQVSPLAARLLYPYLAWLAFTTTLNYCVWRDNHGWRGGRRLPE
Protocol: All studies using human tissue were conducted and approved in accordance with the National Health Service Research Ethics Committee Southeast Scotland (NHS-RECSE, Edinburgh Brain and Tissue Bank, 16/ES/0084). Informed consents were obtained from human participants of this study. The Edinburgh Brain and Tissue code and BNN reference numbers for all new tissue samples used in this study are: SD022/13 (BBN_15222), SD038/13 (BBN_18391), SD037/14 (BBN_23395), SD051/14 (BBN_24340), SD012/15 (BBN_25055), SD032/16 (0.01.29084), SD027/12 (BBN_13410), SD038/12 (BBN_4176), SD006/14 (BBN_20593), SD008/14 (BBN_20592), SD020/14 (BBN_22611), SD011/15 (BBN_24781), SD023/12 (BBN_3785), SD029/13 (BBN_15809), SD036/13 (BBN_18392), SD046/13 (BBN_18407), SD034/14 (BBN_22628) and SD031/15 (001.26124). […] Binding was terminated with the addition of ice cold buffer before being immediately filtered over Whatman GF/B filter paper (Whatman, UK) pre-treated with 0.3% polyethylenimine (Sigma-Aldrich, USA) using a Brandel harvester (Brandel, USA). Filter paper was then removed, placed into Optiphase HiSafe 3 (2.5 mL) (Perkin Elmer, USA) and counted 48 h later on a Hidex 300 SL (Hidex, Finland). […] All binding assays were performed in triplicate. GraphPad Prism version 9 (GraphPad Software, USA) was used to fit all binding affinity curves. Curves were fitted using a one-site binding model.

[2] = HPLC determination of membrane permeability (Pm) and membrane partition coefficient (Km) using immobilised artificial membrane (IAM) column; format: physicochemical
Text: (§1) The selection of potential candidates as neurological imaging agents requires evaluation of key physicochemical properties. […] For agents that rely primarily on passive diffusion, the membrane partition coefficient is particularly critical. […] Taken together, these physicochemical properties and in vivo studies support the potential of LW223 as a neurological imaging agent. Although the R-enantiomer of LW223 was used to determine the physicochemical properties in this study, these values are expected to be representative of the S-enantiomer, which is consistent with observations for other enantiomeric pairs.[32] [table]

human serum albumin = human serum albumin (Homo sapiens, UniProt P02768); assay: HPLC determination of plasma protein binding using human serum albumin coated column; format: in vitro ADME; settings: read-out: % PPB (plasma protein binding) (converted)
Sequence of human serum albumin (P02768 25-609): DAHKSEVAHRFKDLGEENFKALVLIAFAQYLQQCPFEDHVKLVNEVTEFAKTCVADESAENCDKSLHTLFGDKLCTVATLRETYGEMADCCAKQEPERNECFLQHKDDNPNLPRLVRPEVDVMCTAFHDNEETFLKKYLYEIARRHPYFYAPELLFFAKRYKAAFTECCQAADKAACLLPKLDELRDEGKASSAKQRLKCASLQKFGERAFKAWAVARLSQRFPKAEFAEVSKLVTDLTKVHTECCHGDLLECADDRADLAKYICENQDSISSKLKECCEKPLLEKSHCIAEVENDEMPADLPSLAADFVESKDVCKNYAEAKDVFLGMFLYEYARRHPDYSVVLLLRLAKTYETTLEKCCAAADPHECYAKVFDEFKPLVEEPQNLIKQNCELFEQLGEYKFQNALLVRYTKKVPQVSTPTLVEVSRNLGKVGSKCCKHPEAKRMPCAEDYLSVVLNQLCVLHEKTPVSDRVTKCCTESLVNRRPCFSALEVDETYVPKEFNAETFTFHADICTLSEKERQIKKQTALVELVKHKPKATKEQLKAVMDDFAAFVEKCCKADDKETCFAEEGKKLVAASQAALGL
Text: as §1

[3] = HPLC determination of partition coefficient (log P) using C18 column; format: physicochemical
Text: as §1

TSPO [4] = molecular target: T1, TSPO; design: method as in PMID 32859708; settings: human brain (and heart) tissues, cited from earlier work
[5] = design: method as in PMID 32859708, PMID 37795635; settings: murine brain; cited from earlier work

| Structure (SMILES) | influence of rs6971 polymorphism on binding (TSPO [1]) | influence of rs6971 polymorphism on binding (TSPO [1]; listed as S-enantiomer) | fold lower affinity for TSPO compared to (R)-LW223 (TSPO [1]; human brain homogenate) [fold] | fold lower affinity for TSPO relative to PK11195 (TSPO [1]; human brain homogenate) [fold] | Ki (TSPO [1]; human brain homogenate, all genotypes (HAB, MAB, LAB), n = 18, 1 nM [3H]PK11195, 1.5 h at 4 °C, Kd […], mean ± SD, read-out: TSPO affinity (Ki)) [nM] | K m (membrane partition coefficient) [2] | fraction unbound (human serum albumin) | chromatographic logP [3] | influence of rs6971 polymorphism on binding (TSPO [4]) | influence of rs6971 polymorphism on binding (TSPO [4]; listed as (R)-LW223) | blood–brain barrier crossing and non-specific binding [5] |
| --- | --- | --- | --- | --- | --- | --- | --- | --- | --- | --- | --- |
| CC[C@H](C)N(C)C(=O)c1nc2ccccc2c(-c2ccccc2)c1CF [(S)-LW223, (S)-(N-sec-Butyl)-3-(fluoromethyl)-N-methyl-4-phenylquinoline-2-carboxamide] | not significantly influenced by the rs6971 polymorphism | insensitive to the rs6971 polymorphism | 7.5 | 3.75 | 4.5 ± 0.7 | – | – | – | – | – | – |
| CC[C@@H](C)N(C)C(=O)c1nc2ccccc2c(-c2ccccc2)c1CF [LW223, (R)-N-(sec-Butyl)-3-(fluoromethyl)-N-methyl-4-phenylquinoline-2-carboxamide] | – | – | – | – | – | 195 | 0.08 | 4.13 | unaffected by rs6971 | not significantly influenced by the rs6971 polymorphism | effectively crosses the BBB and exhibits low non-specific binding |
| CCC(C)N(C)C(=O)c1cc2ccccc2c(-c2ccccc2Cl)n1 (centres unmarked) [PK11195, reference compound] | – | – | – | – | – | 184 | 0.08 | 3.98 | – | – | – |
